{
  "source": "patent US9364494B2",
  "about": "“Somatostatin 2 receptor (sst2), deoxycytidine kinase (dck) and uridine monophosphate kinase (umk) pancreatic gene therapy” (Institut National de la Sante et de la Recherche Medicale …, priority 2007, dated 2016)",
  "key": {"PC1.0 cells [1]": {"test_system": "PC1.0 cells", "type": "in vivo", "conditions": "day 15 post-cell implantation; 25 to 50 μg expression vector intra-tumoral; gemcitabine i.p. 80 to 120 mg/kg/day every three days"}, "PC1.0 cells [2]": {"test_system": "PC1.0 cells", "parameters": "species or system Syrian golden hamsters", "conditions": "hamster, in vivo, ip, 120 mg/kg/day"}},
  "data": [
    {"smiles": "Cl.Nc1ccn([C@@H]2O[C@H](CO)[C@@H](O)C2(F)F)c(=O)n1", "note": "[Gemcitabine, No DNA, 2′-deoxy-2′,2′-difluorocytidine monohydrochloride]", "values": [
      {"measurement": "Tumor progression (percentage)", "setting": "PC1.0 cells [1]", "result": "+150 to 378 percentage"},
      {"measurement": "tumor evolution on day 15", "setting": "PC1.0 cells [2]", "result": "only slow down the tumor progression"}
    ]}
  ]
}
